# Test results: patent US9095617B2, “Surgical adjuvant composition and associated methods of use” (Soteria Industries, Inc., priority 2010, dated 2015)
# Test system: Bovine chondrocytes
# Experiment: Viability of isolated chondrocytes suspended 12 hrs at 37° C. in various solutions (membrane integrity dyes)
# Format: cell-based
# Conditions: bupivacaine 1.25 mg/mL [0.125%]
# Experimental: FIG. 7: Bovine chondrocytes suspended for 12 hrs. at 37° C. in various solutions of phosphate buffered saline (PBS), bupivacaine (1.25 mg/mL [0.125%]), arthroguard and saline. In these experiments, 2.5 mg/mL [0.25%] bupivacaine was combined with arthroguard to yield a final concentration of 1.25 mg/mL [0.125%] bupivacaine in arthroguard. for 12 hrs. Cell viability is assessed by membrane integrity dyes.
compound,measurement,value
"CCCCN1CCCCC1C(=O)Nc1c(C)cccc1C (stereo not shown) [bupivicaine, bupivacaine]",amount of cell death of isolated chondrocytes exposed to bupivicaine,increases the amount of cell death
